Source: patent EP0358880B1, “Use of retinoids” (F. HOFFMANN-LA ROCHE AG, priority 1988, dated 1990)
Marks after values point to notes of the source that are not given here.

How the values were obtained:
[1] = test system: UVB-Induced Dermal Damage in the Hairless Mouse; assay: Repair of UVB-induced dermal damage in the hairless mouse (repair zone by histology, Luna's stain, image analyzer); assay type: in vivo, Hairless mice (HRS/J strain); settings: three times per week, 10 weeks, total area per twenty microscopic fields
Source text: Hairless mice (HRS/J strain, Jackson Labs, 5-7 weeks old at the start of the experiments) were irradiated three times per week with a bank of 8 Westinghouse® Sunlamps (FS40) placed about 20cm above the animals. The radiation dose was controlled by an International Light Model IL844A Phototherapy Exposure Control and a detector. The UVB dosing schedule was such that individual doses, seldom exceeding 0.06J/cm², caused minimal erythema but no burning or scarring. There was significant elastosis, detected by histology, after a total dose of about 3.5J/cm²: this was confirmed in measurements of elastin in whole skin by means of a radioimmunoassay for desmosine. Desmosine is found in elastin hydrolysates and is derived from crosslinks in the elastin molecule; it is a reliable index of total elastin. Typically, desmosine increased by about 2-3 fold after 3.5J/cm² of UVB irradiation. To effect repair of the dermal damage, the UVB irradiation was discontinued and animals were treated three times per week with various concentrations of the compounds of formula I dissolved in acetone. Solutions were made up freshly every week at concentrations such that the dose was delivered in 100µl acetone and applied topically to an area of about 10 cm² on the back of the animal with a plastic pipette; a control group treated with acetone alone was also included. After 10 weeks of treatment the animals were sacrificed, skin samples were taken and processed by standard methods. A six µm [micron] section from each animal was stained for elastin with Luna's stain and the degree of repair measured quantitatively. In this model, repair is defined by the appearance of a normalized dermis extending from the epidermis down to the layer of compressed elastin. The extent of repair was reflected by the width of this zone. In these studies, the area of the zone on a standard length of histological section was measured by an image analyzer and the results are given as total area in mm² per twenty microscopic fields. Data was analyzed by Student's t-test. The results are given in Table I. In Table I, and Table II each group dosed at a particular concentration of compound of formula I contained six to ten animals.

[2] = test system: Wrinkles Produced in Hairless Mice by UVB-Irradiation; assay: Effect on wrinkles produced in hairless mice by UVB irradiation (skin replica, visual Wrinkle Index); assay type: in vivo
Source text: Hairless mice (HRS/J strain, Jackson Labs, 5-7 weeks old at the start of the experiments) were irradiated three times per week with a bank of 8 Westinghouse® Sunlamps (FS40) placed about 20cm above the animals. The radiation dose was controlled by an International Light Model IL844A Phototherapy Exposure Control and a detector. The UVB dosing schedule was such that individual doses, seldom exceeding 0.06J/cm², caused minimal erythema but no burning or scarring. There was significant elastosis, detected by histology, after a total dose of about 3.5J/cm²: this was confirmed in measurements of elastin in whole skin by means of a radioimmunoassay for desmosine. Desmosine is found in elastin hydrolysates and is derived from crosslinks in the elastin molecule; it is a reliable index of total elastin. Typically, desmosine increased by about 2-3 fold after 3.5J/cm² of UVB irradiation. To effect repair of the dermal damage, the UVB irradiation was discontinued and animals were treated three times per week with various concentrations of the compounds of formula I dissolved in acetone. Solutions were made up freshly every week at concentrations such that the dose was delivered in 100µl acetone and applied topically to an area of about 10 cm² on the back of the animal with a plastic pipette; a control group treated with acetone alone was also included.
One skin replica for each animal was taken of these areas using a liquid dental impression material (SILFLO® - Flexico Developments Ltd., England). Wrinkles appeared in these impressions as ridges which cast a shadow when illuminated with low angle light. A characteristic of the wrinkling pattern was the occurrence of the ridges in a regularly-spaced array about 2-mm apart. The extent of wrinkling was visually assessed using this line pattern and assigned a value (Wrinkle Index) of zero to 4 with zero representing complete effacement of wrinkling and 4 representing the maximum degree of wrinkling. It was observed that compounds of formula I caused a dose-dependent effacement of the wrinkles with ED₅₀ values in the microgram range.

SMILES: C/C(=C\c1ccc(SC(=O)N(C)C)cc1)c1ccc2c(c1)C(C)(C)CCC2(C)C [Compound A]
- Repair Zone ([1]; 0.1 µg topical in 100 µl acetone): 0.005 +/- 0.001 mm²
- Repair Zone ([1]; 0.5 µg topical in 100 µl acetone): 0.006 +/- 0.003 mm²
- Repair Zone ([1]; 2.0 µg topical in 100 µl acetone, P < 0.05 vs Control): 0.021 +/- 0.003* mm²
- Repair Zone ([1]; 10.0 µg topical in 100 µl acetone): 0.015 +/- 0.004 mm²
- Repair Zone ([1]; 50.0 µg topical in 100 µl acetone, P < 0.05 vs Control): 0.025 +/- 0.007* mm²
- Wrinkle Index ([2]; 0.1 µg topical, scale zero (complete effacement) to 4 (maximum wrinkling)): 1.4 +/- 0.5
- Wrinkle Index ([2]; 0.5 µg topical, scale zero to 4, P < 0.05 vs Control): 1.0 +/- 0.3*
- Wrinkle Index ([2]; 2.0 µg topical, scale zero to 4, P < 0.01 vs Control): 0.8 +/- 0.2**
- Wrinkle Index ([2]; 10.0 µg topical, scale zero to 4, P < 0.001 vs Control): 0.3 +/- 0.1***
- Wrinkle Index ([2]; 50.0 µg topical, scale zero to 4, P < 0.001 vs Control): 0.3 +/- 0.1***
